# Assay results from the supplement of paper PMC10307832.
# Legend:
# Assay in all cases: relative viability (nuclei count vs DMSO), 5 days (fraction); higher = more cells survive
# Linifanib + Alpelisib = compound: Cc1ccc(F)c(NC(=O)Nc2ccc(-c3cccc4[nH]nc(N)c34)cc2)c1 [Linifanib] + Cc1nc(NC(=O)N2CCC[C@H]2C(N)=O)sc1-c1ccnc(C(C)(C)C(F)(F)F)c1 [Alpelisib] (partner 2 µM)
# Outline: (§1)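 Values are medians from duplicate plates. Each reflects relative viability, defined as the nuclei count of treated wells over that of vehicle wells. Lung cancer cell lines in 1536-well plates were pin-tool dosed one day after seeding with one drug alone or with a fixed anchor-drug dose plus five library-drug doses (not always all listed) in √10 steps, then fixed, stained and imaged at 4× after 5 days.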
# Linifanib + Olaparib = compound: Cc1ccc(F)c(NC(=O)Nc2ccc(-c3cccc4[nH]nc(N)c34)cc2)c1 [Linifanib] + O=C(c1cc(Cc2n[nH]c(=O)c3ccccc23)ccc1F)N1CCN(C(=O)C2CC2)CC1 [Olaparib] (partner 8 µM)
# Outline: as §1
# Linifanib + Tozasertib = compound: Cc1ccc(F)c(NC(=O)Nc2ccc(-c3cccc4[nH]nc(N)c34)cc2)c1 [Linifanib] + Cc1cc(Nc2cc(N3CCN(C)CC3)nc(Sc3ccc(NC(=O)C4CC4)cc3)n2)n[nH]1 [Tozasertib] (partner 0.1 µM)
# Outline: as §1
# Linifanib + Phenformin = compound: Cc1ccc(F)c(NC(=O)Nc2ccc(-c3cccc4[nH]nc(N)c34)cc2)c1 [Linifanib] + N=C(N)NC(=N)NCCc1ccccc1 [Phenformin] (partner 250 µM)
# Outline: as §1
# Linifanib + Trametinib = compound: Cc1ccc(F)c(NC(=O)Nc2ccc(-c3cccc4[nH]nc(N)c34)cc2)c1 [Linifanib] + CC(=O)Nc1cccc(-n2c(=O)n(C3CC3)c(=O)c3c(Nc4ccc(I)cc4F)n(C)c(=O)c(C)c32)c1 [Trametinib] (partner 0.02 µM)
# Outline: as §1
# Linifanib + Linsitinib = compound: Cc1ccc(F)c(NC(=O)Nc2ccc(-c3cccc4[nH]nc(N)c34)cc2)c1 [Linifanib] + C[C@]1(O)C[C@@H](c2nc(-c3ccc4ccc(-c5ccccc5)nc4c3)c3c(N)nccn32)C1 [Linsitinib] (partner 1 µM)
# Outline: as §1
cell line,measurement,setting,value
PC-14,relative viability,Linifanib + Alpelisib; first compound 0.03162 µM,0.907
same,relative viability,Linifanib + Alpelisib; first compound 0.1 µM,0.958
same,relative viability,Linifanib + Alpelisib; first compound 0.3162 µM,0.88
same,relative viability,Linifanib + Olaparib; first compound 0.03162 µM,0.353
same,relative viability,Linifanib + Olaparib; first compound 0.1 µM,0.231
same,relative viability,Linifanib + Olaparib; first compound 0.3162 µM,0.256
same,relative viability,Linifanib + Tozasertib; first compound 0.03162 µM,0.499
same,relative viability,Linifanib + Tozasertib; first compound 0.1 µM,0.502
same,relative viability,Linifanib + Tozasertib; first compound 0.3162 µM,0.552
same,relative viability,Linifanib + Phenformin; first compound 0.03162 µM,0.557
same,relative viability,Linifanib + Phenformin; first compound 0.1 µM,0.59
same,relative viability,Linifanib + Phenformin; first compound 0.3162 µM,0.491
same,relative viability,Linifanib + Trametinib; first compound 0.03162 µM,0.689
same,relative viability,Linifanib + Trametinib; first compound 0.1 µM,0.715
same,relative viability,Linifanib + Trametinib; first compound 0.3162 µM,0.666
same,relative viability,Linifanib + Linsitinib; first compound 0.03162 µM,1.01
same,relative viability,Linifanib + Linsitinib; first compound 0.1 µM,1.07
same,relative viability,Linifanib + Linsitinib; first compound 0.3162 µM,0.922
